32 compounds from patent US7307084B2, “Cyclic benzimidazoles” (Altana Pharma AG, priority 2003, dated 2007) can be followed below.

A word on the melting point: it is the temperature of the solid-liquid transition.

SMILES strings stand for the structures.

The first data set deals with pentagastrin-stimulated acid secretion of the perfused rat stomach. Description: Testing of the secretion-inhibiting action on the perfused rat stomach. Particulars: dose 1 μmol/kg i.d. (intraduodenal), perfused stomach of anesthetized female CD rat, in vivo. An excerpt: In Table A which follows, the influence of the compounds according to the invention on the pentagastrin-stimulated acid secretion of the perfused rat stomach after intraduodenal administration in vivo is shown.
The abdomen of anesthetized rats (CD rat, rat, female, 200-250 g; 1.5 g/kg l.m. urethane) was opened after trachetomy by a median upper abdominal incision and a PVC catheter was fixed transorally in the esophagus and another via the pylorus such that the ends of the tubes just projected into the gastric lumen. The catheter leading from the pylorus led outward into the right abdominal wall through a side opening.
After thorough rinsing (about 50-100 ml), warm (37° C.) physiological NaCl solution was continuously passed through the stomach (0.5 ml/min, pH 6.8-6.9; Braun-Unita 1). The pH (pH meter 632, glass electrode EA 147; φ=5 mm, Metrohm) and, by titration with a freshly prepared 0.01N NaOH solution to pH 7 (Dosimat 665 Metrohm), the secreted HCl were determined in the effluent in each case collected at an interval of 15 minutes.
The gastric secretion was stimulated by continuous infusion of 1 μg/kg (=1.65 ml/h) of i.v. pentagastrin (left femoral vein) about 30 min after the end of the operation (i.e. after determination of 2 preliminary fractions). The substances to be tested were administered intraduodenally in a 2.5 ml/kg liquid volume 60 min after the start of the continuous pentagastrin infusion.
The body temperature of the animals was kept at a constant 37.9-38° C. by infrared irradiation and heat pads (automatic, stepless control by means of a rectal temperature sensor).
As to `CNC(=O)c1cc2c(nc(C)n2C)c2c1CC[C@@H](c1ccccc1)N2` [32 (8S), (8S)-2,3-dimethyl-8-phenyl-6,7,8,9-tetrahydro-3H-imidazo[4,5-h]quinoline-5-carboxylic acid methylamide], the “Inhibition of acid secretion” value was over 50%.

Consider `Cc1nc2c3c(c(C(=O)N(C)C)cc2n1C)CC[C@@H](c1ccccc1)O3` [33 (8S), (8S)-2,3-Dimethyl-8-phenyl-3,6,7,8-tetrahydro-chromeno[7,8-d]imidazole-5-carboxylic Acid Dimethylamide], for which the “Inhibition of acid secretion” value was over 50%.

`Cc1nc2c3c(c(C(=O)N(C)C)cc2n1C)CCC(c1ccccc1)O3` (centres unmarked) [Example 1, 2,3-Dimethyl-phenyl-3,6,7,8-tetrahydro-chromeno[7,8-a]imidazole-5-carboxylic Acid Dimethylamide]: the “Inhibition of acid secretion” value is listed as over 50%.

`Cc1nc2c3c(c(C(=O)N(C)C)cc2n1C)CCC(c1ccccc1)N3` (centres unmarked) [Example 2, 2,3-Dimethyl-8-phenyl-6,7,8,9-tetrahydro-3H-imidazo[4,5-h]quinoline-5-carboxylic Acid Dimethylamide]: the “Inhibition of acid secretion” value is recorded as over 50%.

Consider `CNC(=O)c1cc2c(nc(C)n2C)c2c1CCC(c1ccccc1)O2` (centres unmarked) [Example 4, 2,3-Dimethyl-8-phenyl-4,6,7,8-tetrahydro-chromeno[7,8-d] imidazole-5-carboxylic Acid Methylamide], for which the “Inhibition of acid secretion” value is over 50%.

For the compound `CN(C)C(=O)c1cc2c(nc(C3CC3)n2C)c2c1CCC(c1ccccc1)O2` (centres unmarked) [Example 10, 2-Cyclopropyl-3-methyl-8-phenyl-3,6,7,8-tetrahydro-chromeno[7,8-d]imidazole-5-carboxylic Acid Dimethylamide], the “Inhibition of acid secretion” value is recorded as over 50%.

Consider `Cc1nc2c3c(c(C(=O)N4CCC4)cc2n1C)CCC(c1ccccc1)O3` (centres unmarked) [Example 18, 1-Azetidin-1-yl-1-(2,3-dimethyl-8-phenyl-3,6,7,8-tetrahydro-chromeno[7,8-d]imidazol-5-yl)-methanone], for which the “Inhibition of acid secretion” value is given as over 50%.

Regarding `CNC(=O)c1cc2c(nc(C)n2C)c2c1CCC(c1ccccc1)N2` (centres unmarked) [Example 29, 2,3-Dimethyl-8-phenyl-6,7,8,9-tetrahydro-3H-imidazo[4,5-h]quinoline-5-carboxylic Acid Methylamide], the “Inhibition of acid secretion” value was over 50%.

Tested on in another data set: not given
Test: not given
Conditions: not given
Consider `Cc1nc2c3c(c(C(=O)NN4CC4)cc2n1C)CCC(c1ccccc1)N3` (centres unmarked), for which the melting point lay in the range of 192 to 193 °C.

`Cc1nc2c3c(c(C(=O)N(C)C)cc2n1C)CCC(c1ccccc1)N3` (centres unmarked) [Example 2, 2,3-Dimethyl-8-phenyl-6,7,8,9-tetrahydro-3H-imidazo[4,5-h]quinoline-5-carboxylic Acid Dimethylamide] returned a melting point of 167 to 170 °C.

As to `Cc1nc2c3c(c(C(N)=O)cc2n1C)CCC(c1ccccc1)O3` (centres unmarked) [Example 3, 2,3-Dimethyl-8-phenyl-3,6,7,8tetrahydro-chromeno[7,8-d]imidazole-5-carboxylic Acid Amide], the melting point is 264 to 267 °C.

The compound `Cc1nc2c3c(c(C(=O)NCCO)cc2n1C)CCC(c1ccccc1)O3` (centres unmarked) [Example 5, 2,3 Dimethyl-8-phenyl-3,6,7,8-tetrahydro-chromeno[7,8-d]imidazole-5-carboxylic Acid (2-Hydroxy-ethyl)-amide] had a melting point of 228 to 229 °C.

The compound `COCCNC(=O)c1cc2c(nc(C)n2C)c2c1CCC(c1ccccc1)O2` (centres unmarked) [Example 6, 2,3-Dimethyl-8-phenyl-3,6,7,8-tetrahydro-chromeno[7,8-d]imidazole-5-carboxylic Acid (2-Methoxy-ethyl)amide] displayed a melting point of 254 to 256 °C.

Consider `Cc1nc2c3c(c(C(=O)N4CCOCC4)cc2n1C)CCC(c1ccccc1)O3` (centres unmarked) [Example 7, 1-(2,3-Dimethyl-8-phenyl-3,6,7,8-tetrahydro-chromeno[7,8-d]imidazol-5-yl)-1-morpholin-4-yl-methanone], for which the melting point lay within 291 to 293 °C.

Regarding `CC(C)c1nc2c3c(c(C(=O)N(C)C)cc2n1C)CCC(c1ccccc1)O3` (centres unmarked) [Example 9, 2-Isopropyl-3-methyl-8-phenyl-3,6,7,8-tetrahydro-chromeno[7,8-d]imidazole-5-carboxylic Acid Dimethylamide], the melting point lay in the range of 179 to 180 °C.

Take `CN(C)C(=O)c1cc2c(nc(C3CC3)n2C)c2c1CCC(c1ccccc1)O2` (centres unmarked) [Example 10, 2-Cyclopropyl-3-methyl-8-phenyl-3,6,7,8-tetrahydro-chromeno[7,8-d]imidazole-5-carboxylic Acid Dimethylamide]: the melting point was 176 to 179 °C.

With `COCc1cc2c(nc(C)n2C)c2c1CCC(c1ccccc1)O2.O=C(O)C(=O)O` (centres unmarked) [Example 11, 5-Methoxymethyl-2,3-dimethyl-8-phenyl-3,6,7,8-tetrahydro-chromeno[7,8-d]imidazole Oxalic Acid], the melting point is 204 to 205 °C.

For the compound `COCCOCc1cc2c(nc(C)n2C)c2c1CCC(c1ccccc1)O2.O=C(O)C(=O)O` (centres unmarked) [Example 12, 5-(2-Methoxy-ethoxymethyl)-2,3-dimethyl-8-phenyl-3,6,7,8-tetrahydro-chromeno[7,8-d]-imidazole Oxalic Acid], the melting point is 131 to 133 °C.

`Cc1nc2c3c(c(C(=O)N4CC4)cc2n1C)CCC(c1ccccc1)O3` (centres unmarked) [Example 13, 1-Aziridin-1-yl-(2,3-dimethyl-8-phenyl-3,6,7,8-tetrahydro-chromeno[7,8-d]imidazol-5-yl)-methanone] registered a melting point of 201 to 204 °C.

`CN(C)C(=O)c1cc2c(nc(C(F)(F)F)n2C)c2c1CCC(c1ccccc1)O2` (centres unmarked) [Example 14, 3-Methyl-8-phenyl-2-trifluoromethyl-3,6,7,8-tetrahydro-chromeno[7,8-d]imidazole-5-carboxylic Acid Dimethylamide] showed a melting point of 223 to 225 °C.

Turning to `CCOC(=O)c1cc2c(nc(C)n2C)c2c1CCC(c1ccccc1)O2` (centres unmarked) [Example 15, 2,3-Dimethyl-8-phenyl-3,6,7,8-tetrahydro-chromeno[7,8-d]imidazole-5-carboxylic Acid Ethyl Ester], the melting point was 172 to 173 °C.

Compound `Cc1nc2c3c(c(C(=O)O)cc2n1C)CCC(c1ccccc1)O3` (centres unmarked) [Example 16, 2,3-Dimethyl-8-phenyl-3,6,7,8-tetrahydro-chromeno[7,8-d]imidazole-5-carboxylic Acid] gave a melting point of 323 to 326 °C.

`Cc1nc2c3c(c(CO)cc2n1C)CCC(c1ccccc1)O3` (centres unmarked) [Example 17, (2,3-Dimethyl-8-phenyl-3,6,7,8-tetrahydro-chromeno[7,8-d]imidazol-5-yl)methanol]: the melting point fell in the range of 279 to 281 °C.

With `CCCNC(=O)c1cc2c(nc(C)n2C)c2c1CCC(c1ccccc1)O2` (centres unmarked) [Example 19, 2,3Dimethyl-8-phenyl-3,6,7,8-tetrahydro-chromeno[7,8-d]imidazole-5-carboxylic Acid Propyl-amide], the melting point amounted to 273 °C.

In turn, `Cc1nc2c3c(c(C(=O)NCC(O)CO)cc2n1C)CCC(c1ccccc1)O3` (centres unmarked) [Example 21, 2,3-Dimethyl-8-phenyl-3,6,7,8tetrahydro-chromeno[7,8-d]imidazole-5-carboxylic Acid (2,3-Dihydroxy-propyl)amide] gave a melting point of 268 to 270 °C.

Take `COCn1c(C)nc2c3c(c(C(=O)N(C)C)cc21)CCC(c1ccccc1)O3` (centres unmarked) [Example 22, 3Methoxymethyl-2-methyl-8-phenyl-3,6,7,8-tetrahydro-chromeno[7,8-d]imidazole-5-carboxylic Acid Dimethylamide]: the melting point lay within 213 to 215 °C.

As to `CC(=O)N(C)c1cc2c(nc(C)n2C)c2c1CCC(c1ccccc1)O2` (centres unmarked) [Example 23, N-(2,3-Dimethyl-8-phenyl-3,6,7,8-tetrahydro-chromeno[7,8-d]imidazol-5-yl)-N-methyl-acetamide], the melting point is 214 to 216 °C.

Regarding `CCc1nc2c3c(c(C(=O)N(C)C)c(-c4ccccc4)c2n1C)CCCO3` [Example 24, 2-Ethyl-3-methyl-4-phenyl-3,6,7,8-tetrahydro-chromeno[7,8-d]imidazole-5-carboxylic Acid Dimethylamide], the melting point was 195 to 197 °C.

`CCOC(=O)c1cc2c(nc(C)n2C)c2c1CCC(c1ccccc1)N2` (centres unmarked) [Example 25, Ethyl 2,3-dimethyl-8-phenyl-6,7,8,9-tetrahydro-3H-imidazo[4,5-h]quinoline-5-carboxylate] yielded a melting point of 185 to 186 °C.

Regarding `Cc1nc2c3c(c(C(=O)O)cc2n1C)CCC(c1ccccc1)N3` (centres unmarked) [Example 26, 2,3-Dimethyl-8-phenyl-6,7,8,9-tetrahydro-3H-imidazo[4,5-h]quinoline-5-carboxylic Acid], the melting point lay in the range of 325 to 326 °C.

For the compound `Cc1nc2c3c(c(C(N)=O)cc2n1C)CCC(c1ccccc1)N3` (centres unmarked) [Example 28, 2,3-Dimethyl-8-phenyl-6,7,8,9-tetrahydro-3H-imidazo[4,5-h]quinoline-5-carboxylic Acid Amide], the melting point fell in the range of 311 to 319 °C.

Consider `CNC(=O)c1cc2c(nc(C)n2C)c2c1CCC(c1ccccc1)N2` (centres unmarked) [Example 29, 2,3-Dimethyl-8-phenyl-6,7,8,9-tetrahydro-3H-imidazo[4,5-h]quinoline-5-carboxylic Acid Methylamide], for which the melting point came to 259 °C.

In turn, `Cc1nc2c3c(c(CO)cc2n1C)CCC(c1ccccc1)N3` (centres unmarked) [Example 31, 5-Hydroxymethyl-2,3-dimethyl-8-phenyl-6,7,8,9tetrahydro-3H-imidazo[4,5-h]quinoline] showed a melting point of 253 to 254 °C.

`Cc1nc2c3c(c(C(=O)NC4CC4)cc2n1C)CCC(c1ccccc1)O3` (centres unmarked) [Example 35, 2,3-Dimethyl-8-phenyl-3,6,7,8-tetrahydro-chromeno[7,8-d]imidazole-5-carboxylic Acid Cyclopropylamide] registered a melting point of 312 to 313 °C.

`Cc1nc2c3c(ccc2n1C)CCC(c1ccccc1)O3` (centres unmarked) [Example 36, 2,3-Dimethyl-8-phenyl-3,6,7,8-tetrahydro-chromeno[7,8-d]imidazole] came in with a melting point of 161 to 164 °C.
